Laboratory results as given in ChEMBL document CHEMBL3885881, “DrugMatrix”.

Organism: Rattus norvegicus
Assay: DrugMatrix - Regimen: Daily Repeat
Type: toxicity, organism-based, Sprague-Dawley
Parameters: regimen Daily Repeat, gender Male, age 6-8 weeks
Conditions: in vivo, vehicle 100 % SALINE; for ABSOLUTE BASOPHIL / ABSOLUTE EOSINOPHIL / ABSOLUTE LYMPHOCYTE / ABSOLUTE MONOCYTE / BASOPHIL / EOSINOPHIL / ERYTHROCYTE COUNT / HEMATOCRIT / HEMOGLOBIN / LEUKOCYTE COUNT / LYMPHOCYTE / MEAN CORPUSCULAR HEMOGLOBIN / MEAN CORPUSCULAR HEMOGLOBIN CONCENTRATION / MEAN CORPUSCULAR VOLUME / MONOCYTE / NEUTROPHIL / NUCLEATED RED BLOOD CELLS / PLATELET COUNT: tissue Blood
[1] = ip, 0.5 mg/kg, […], tissue Plasma, route intraperitoneal, dose level High, time 28 day
[2] = iv, 0 mg/kg, 72 h, dose level Control, time 3 day
[3] = iv, 0 mg/kg, 72 h, tissue Plasma, dose level Control, time 3 day
[4] = iv, 0 mg/kg, 120 h, dose level Control, time 5 day
[5] = iv, 0 mg/kg, 120 h, tissue Plasma, dose level Control, time 5 day
[6] = iv, 2 mg/kg, 72 h, dose level High, time 3 day
[7] = iv, 2 mg/kg, 72 h, tissue Plasma, dose level High, time 3 day
[8] = iv, 2 mg/kg, 120 h, dose level High, time 5 day
[9] = iv, 2 mg/kg, 120 h, tissue Plasma, dose level High, time 5 day

CISPLATIN
ALKALINE PHOSPHATASE [1]: 134.22 u/L
ASPARTATE AMINOTRANSFERASE [1]: 78.67 u/L
BLOOD UREA NITROGEN [1]: 25 mg/dL
CHOLESTEROL [1]: 63.11 mg/dL
CREATININE [1]: 0.82 mg/dL
GLUCOSE [1]: 108.67 mg/dL
LACTATE DEHYDROGENASE [1]: 80.89 u/L
LIPASE [1]: 18.22 u/L
PHOSPHORUS [1]: 9.11 mg/dL
POTASSIUM [1]: 6.18 MEQ/L
SODIUM [1]: 151.78 MEQ/L
TOTAL BILIRUBIN [1]: 0.29 mg/dL
URIC ACID [1]: 1.11 mg/dL
ABSOLUTE BASOPHIL [2]: 0 CELLS/uL
ABSOLUTE EOSINOPHIL [2]: 0 CELLS/uL
ABSOLUTE LYMPHOCYTE [2]: 7026.17 CELLS/uL
ABSOLUTE MONOCYTE [2]: 44.33 CELLS/uL
BASOPHIL [2]: 0%
EOSINOPHIL [2]: 0%
ERYTHROCYTE COUNT [2]: 5.49 x10E6/uL
HEMATOCRIT [2]: 33.67%
HEMOGLOBIN [2]: 13.17 G/DL
LEUKOCYTE COUNT [2]: 7.45 x10E3/uL
LYMPHOCYTE [2]: 94%
MEAN CORPUSCULAR HEMOGLOBIN [2]: 24.03 pg
MEAN CORPUSCULAR HEMOGLOBIN CONCENTRATION [2]: 39.15 G/DL
MEAN CORPUSCULAR VOLUME [2]: 61.4 fL
MONOCYTE [2]: 0.67%
NEUTROPHIL [2]: 5.33%
NUCLEATED RED BLOOD CELLS [2]: 0.17 /100WBC
PLATELET COUNT [2]: 1062.5 x10E3/uL
ALANINE AMINOTRANSFERASE [3]: 53.17 u/L
ALKALINE PHOSPHATASE [3]: 339.83 u/L
ASPARTATE AMINOTRANSFERASE [3]: 83.33 u/L
BLOOD UREA NITROGEN [3]: 16 mg/dL
CARBON DIOXIDE [3]: 32.5 mmol/L
CHLORIDE [3]: 98 MEQ/L
CHOLESTEROL [3]: 74.67 mg/dL
CREATININE [3]: 0.2 mg/dL
GLUCOSE [3]: 128.67 mg/dL
LACTATE DEHYDROGENASE [3]: 110.33 u/L
LIPASE [3]: 9 u/L
PHOSPHORUS [3]: 11.73 mg/dL
POTASSIUM [3]: 6.34 MEQ/L
TOTAL BILIRUBIN [3]: 0.18 mg/dL
URIC ACID [3]: 1.28 mg/dL
ABSOLUTE BASOPHIL [4]: 0 CELLS/uL
ABSOLUTE EOSINOPHIL [4]: 26.67 CELLS/uL
ABSOLUTE LYMPHOCYTE [4]: 8334.17 CELLS/uL
ABSOLUTE MONOCYTE [4]: 29.5 CELLS/uL
BASOPHIL [4]: 0%
EOSINOPHIL [4]: 0.33%
ERYTHROCYTE COUNT [4]: 5.44 x10E6/uL
HEMATOCRIT [4]: 33.77%
HEMOGLOBIN [4]: 13.05 G/DL
LEUKOCYTE COUNT [4]: 8.98 x10E3/uL
LYMPHOCYTE [4]: 92.33%
MEAN CORPUSCULAR HEMOGLOBIN [4]: 24 pg
MEAN CORPUSCULAR HEMOGLOBIN CONCENTRATION [4]: 38.67 G/DL
MEAN CORPUSCULAR VOLUME [4]: 62.05 fL
MONOCYTE [4]: 0.33%
NEUTROPHIL [4]: 7%
NUCLEATED RED BLOOD CELLS [4]: 0 /100WBC
PLATELET COUNT [4]: 987 x10E3/uL
ALANINE AMINOTRANSFERASE [5]: 43.5 u/L
ALKALINE PHOSPHATASE [5]: 310.17 u/L
ASPARTATE AMINOTRANSFERASE [5]: 76.67 u/L
BLOOD UREA NITROGEN [5]: 17 mg/dL
CHLORIDE [5]: 100.33 MEQ/L
CHOLESTEROL [5]: 69.33 mg/dL
CREATININE [5]: 0.22 mg/dL
GLUCOSE [5]: 155.17 mg/dL
PHOSPHORUS [5]: 11.2 mg/dL
POTASSIUM [5]: 5.5 MEQ/L
TOTAL BILIRUBIN [5]: 0.18 mg/dL
URIC ACID [5]: 0.88 mg/dL
ABSOLUTE BASOPHIL [6]: 0 CELLS/uL
ABSOLUTE EOSINOPHIL [6]: 0 CELLS/uL
ABSOLUTE LYMPHOCYTE [6]: 6398.67 CELLS/uL
ABSOLUTE MONOCYTE [6]: 72 CELLS/uL
BASOPHIL [6]: 0%
EOSINOPHIL [6]: 0%
ERYTHROCYTE COUNT [6]: 5.34 x10E6/uL
HEMATOCRIT [6]: 33.2%
HEMOGLOBIN [6]: 13.07 G/DL
LEUKOCYTE COUNT [6]: 6.77 x10E3/uL
LYMPHOCYTE [6]: 94.67%
MONOCYTE [6]: 1%
NEUTROPHIL [6]: 4.33%
NUCLEATED RED BLOOD CELLS [6]: 0 /100WBC
PLATELET COUNT [6]: 1193.33 x10E3/uL
ALANINE AMINOTRANSFERASE [7]: 59.33 u/L
ALKALINE PHOSPHATASE [7]: 321.33 u/L
ASPARTATE AMINOTRANSFERASE [7]: 83.33 u/L
BLOOD UREA NITROGEN [7]: 45.67 mg/dL
CARBON DIOXIDE [7]: 28 mmol/L
CHLORIDE [7]: 98.67 MEQ/L
CHOLESTEROL [7]: 63.33 mg/dL
CREATININE [7]: 0.81 mg/dL
GLUCOSE [7]: 165.67 mg/dL
LACTATE DEHYDROGENASE [7]: 157 u/L
LIPASE [7]: 8.33 u/L
PHOSPHORUS [7]: 9.77 mg/dL
POTASSIUM [7]: 5.3 MEQ/L
TOTAL BILIRUBIN [7]: 0.3 mg/dL
URIC ACID [7]: 0.97 mg/dL
ABSOLUTE BASOPHIL [8]: 0 CELLS/uL
ABSOLUTE EOSINOPHIL [8]: 0 CELLS/uL
ABSOLUTE LYMPHOCYTE [8]: 6841 CELLS/uL
ABSOLUTE MONOCYTE [8]: 28.67 CELLS/uL
BASOPHIL [8]: 0%
EOSINOPHIL [8]: 0%
ERYTHROCYTE COUNT [8]: 5.89 x10E6/uL
HEMOGLOBIN [8]: 14.03 G/DL
LEUKOCYTE COUNT [8]: 7.07 x10E3/uL
LYMPHOCYTE [8]: 97%
MEAN CORPUSCULAR HEMOGLOBIN [8]: 23.87 pg
MEAN CORPUSCULAR HEMOGLOBIN CONCENTRATION [8]: 39.17 G/DL
MONOCYTE [8]: 0.33%
NEUTROPHIL [8]: 2.67%
NUCLEATED RED BLOOD CELLS [8]: 0 /100WBC
PLATELET COUNT [8]: 1329.67 x10E3/uL
ALANINE AMINOTRANSFERASE [9]: 52 u/L
ALKALINE PHOSPHATASE [9]: 249 u/L
ASPARTATE AMINOTRANSFERASE [9]: 79.33 u/L
BLOOD UREA NITROGEN [9]: 37.67 mg/dL
CHLORIDE [9]: 100 MEQ/L
CHOLESTEROL [9]: 80 mg/dL
CREATININE [9]: 0.65 mg/dL
GLUCOSE [9]: 137.33 mg/dL
LACTATE DEHYDROGENASE [9]: 134.33 u/L
LIPASE [9]: 11.67 u/L
PHOSPHORUS [9]: 9.43 mg/dL
POTASSIUM [9]: 5.31 MEQ/L
TOTAL BILIRUBIN [9]: 0.17 mg/dL
URIC ACID [9]: 0.67 mg/dL
